Results taken from patent US20230295197A1, “STAT5 and STAT6 Degraders and Uses Thereof” (REGENTS OF THE UNIVERSITY OF MICHICAN, priority 2022, published 2023).
Read-outs that look alike come from different tables or passages of the source.

What was measured:
STAT5 = assay: Immunoblotting (Western blot) analysis of STAT5 degradation efficiency of degraders in treated cells; format: cell-based
Outline: (§1)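 Protein levels of STAT5 and STAT6 were assessed in cells cultured at 37 °C in 10% FBS medium after compound exposure, by quantitative fluorescent Western blotting normalised to equal loading and referenced to GAPDH.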

STAT6 = target: T1, STAT6 (Homo sapiens, UniProt P42226); assay: Immunoblotting (Western blot) analysis of STAT6 degradation efficiency of degraders in treated cells; format: cell-based
T1 construct: endogenous in cells; host or cells: MOLM-16, KU-812, SKNO1, MB231, L1236
T1 sequence (P42226 1-847): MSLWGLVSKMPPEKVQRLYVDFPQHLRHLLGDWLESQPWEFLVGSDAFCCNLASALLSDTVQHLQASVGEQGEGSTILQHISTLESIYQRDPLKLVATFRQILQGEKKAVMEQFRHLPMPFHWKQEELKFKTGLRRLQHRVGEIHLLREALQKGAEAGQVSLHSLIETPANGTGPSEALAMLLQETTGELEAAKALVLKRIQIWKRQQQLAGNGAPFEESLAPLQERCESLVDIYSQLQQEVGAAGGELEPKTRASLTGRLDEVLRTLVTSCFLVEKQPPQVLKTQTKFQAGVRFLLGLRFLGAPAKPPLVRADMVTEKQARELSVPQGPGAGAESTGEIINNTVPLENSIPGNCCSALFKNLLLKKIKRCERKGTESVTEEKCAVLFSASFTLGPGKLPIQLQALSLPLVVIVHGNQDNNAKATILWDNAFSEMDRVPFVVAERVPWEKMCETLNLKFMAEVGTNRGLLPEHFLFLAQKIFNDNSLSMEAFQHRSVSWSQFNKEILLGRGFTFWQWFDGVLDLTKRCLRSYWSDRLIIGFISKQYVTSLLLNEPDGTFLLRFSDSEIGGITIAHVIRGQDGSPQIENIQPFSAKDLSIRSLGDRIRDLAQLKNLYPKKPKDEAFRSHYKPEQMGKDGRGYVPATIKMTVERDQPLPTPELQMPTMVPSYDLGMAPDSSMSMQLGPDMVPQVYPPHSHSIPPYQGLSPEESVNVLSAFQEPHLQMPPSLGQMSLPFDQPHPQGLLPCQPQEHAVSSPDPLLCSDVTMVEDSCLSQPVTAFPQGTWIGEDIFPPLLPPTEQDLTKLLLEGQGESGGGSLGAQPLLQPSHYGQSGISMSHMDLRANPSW
Outline: as §1

[1] = KU-812 cells, read-out: DC50 S5 KU-812
[2] = MOLM-16 cells, class symbols, read-out: DC50 S5 MOLM-16
[3] = SKNO1 cells, read-out: DC50 S5 SKNO1
[4] = MOLM-16 cells, numeric bound, read-out: DC50 S6 MOLM-16
[5] = MOLM-16 cells, numeric bound, read-out: DC50 S5 MOLM-16

SMILES	DC50 (STAT5; [1])	DC50 (STAT5; [2])	DC50 (STAT5; [3])	DC50 (STAT6; [4])	DC50 (STAT5; [5])	DC50 (STAT6; L1236 cells, read-out: DC50 S6 L1236)	DC50 (STAT6; MB231 cells, read-out: DC50 S6 MB231)	DC50 (STAT6; MOLM-16 cells, class symbols, read-out: DC50 S6 MOLM-16)
CC(C)(C)[C@H](NC(=O)c1cc2cc(C(F)(F)P(=O)(O)O)ccc2s1)C(=O)N1CCC[C@H]1C(=O)N(CCC(=O)NCCCC#Cc1cccc2c1CN(C1CCC(=O)NC1=O)C2=O)c1ccc2scnc2c1 (stereo partly drawn) [Compound 668, ((2-(((2S)-1-((2S)-2-(benzo[d]thiazol-5-yl(3-((5-(2-(2,6-dioxopiperidin-3-yl)-1-oxoisoindolin-4-yl)pent-4-yn-1-yl)amino)-3-oxopropyl)carbamoyl)pyrrolidin-1-yl)-3,3-dimethyl-1-oxobutan-2-yl)carbamoyl)benzo[b]thiophen-5-yl)difluoromethyl)phosphonic acid]	100 to 1000 nM	< 100 nM	100 to 1000 nM	> 300 nM	–	–	–	–
Cc1ncsc1-c1ccc([C@H](CC(=O)NCCCCCCCCC(=O)N[C@@H]2C[C@@H](C(=O)Nc3ncc(-c4ccccc4)s3)N(C(=O)[C@@H](NC(=O)c3cc4cc(C(F)(F)P(=O)(O)O)ccc4s3)C(C)(C)C)C2)NC(=O)[C@@H]2C[C@@H](O)CN2C(=O)[C@@H](NC(=O)C2(F)CC2)C(C)(C)C)cc1 [Compound 578, (difluoro(2-(((S)-1-((2S,4R)-4-(9-((S)-3-((2S,4R)-1-((S)-2-(1-fluorocyclopropane-1-carboxamido)-3,3-dimethylbutanoyl)-4-hydroxypyrrolidine-2-carboxamido)-3-(4-(4-methylthiazol-5-yl)phenyl)propanamido)nonanamido)-2-((5-phenylthiazol-2-yl)carbamoyl)pyrrolidin-1-yl)-3,3-dimethyl-1-oxobutan-2-yl)carbamoyl)benzo[b]thiophen-5-yl)methyl)phosphonic acid]	–	–	–	> 300 nM	> 300 nM	–	–	–
Cc1ncsc1-c1ccc([C@H](CC(=O)NCCCCCCC(=O)N[C@@H]2C[C@@H](C(=O)Nc3ncc(-c4ccccc4)s3)N(C(=O)[C@@H](NC(=O)c3cc4cc(C(F)(F)P(=O)(O)O)ccc4s3)C(C)(C)C)C2)NC(=O)[C@@H]2C[C@@H](O)CN2C(=O)[C@@H](NC(=O)C2(F)CC2)C(C)(C)C)cc1 [Compound 576, (difluoro(2-(((S)-1-((2S,4R)-4-(7-((S)-3-((2S,4R)-1-((S)-2-(1-fluorocyclopropane-1-carboxamido)-3,3-dimethylbutanoyl)-4-hydroxypyrrolidine-2-carboxamido)-3-(4-(4-methylthiazol-5-yl)phenyl)propanamido)heptanamido)-2-((5-phenylthiazol-2-yl)carbamoyl)pyrrolidin-1-yl)-3,3-dimethyl-1-oxobutan-2-yl)carbamoyl)benzo[b]thiophen-5-yl)methyl)phosphonic acid]	–	–	–	> 300 nM	> 300 nM	–	–	–
CN(C(=O)[C@@H]1C[C@@H](OCC(=O)NCCCCCC#Cc2cccc3c2CN(C2CCC(=O)NC2=O)C3=O)CN1C(=O)[C@@H](NC(=O)c1cc2cc(C(F)(F)P(=O)(O)O)ccc2s1)C(C)(C)C)c1ccc(Br)cc1 (stereo partly drawn) [Compound 412, ((2-(((2S)-1-((2S,4R)-2-((4-bromophenyl)(methyl)carbamoyl)-4-(2-((7-(2-(2,6-dioxopiperidin-3-yl)-1-oxoisoindolin-4-yl)hept-6-yn-1-yl)amino)-2-oxoethoxy)pyrrolidin-1-yl)-3,3-dimethyl-1-oxobutan-2-yl)carbamoyl)benzo[b]thiophen-5-yl)difluoromethyl)phosphonic acid]	–	–	> 10000 nM	–	–	> 10000 nM	> 10000 nM	–
CN(CCCC#Cc1cccc2c1CN(C1CCC(=O)NC1=O)C2=O)C(=O)CCN(C(=O)[C@@H]1CCCN1C(=O)[C@@H](NC(=O)c1cc2cc(C(F)(F)P(=O)(O)OCOC(=O)C(C)(C)C)ccc2s1)C(C)(C)C)c1ccc(-c2nccs2)cc1 (stereo partly drawn) [Compound 679, ((((2-(((2S)-1-((2S)-2-((3-((5-(2-(2,6-dioxopiperidin-3-yl)-1-oxoisoindolin-4-yl)pent-4-yn-1-yl)(methyl)amino)-3-oxopropyl)(4-(thiazol-2-yl)phenyl)carbamoyl)pyrrolidin-1-yl)-3,3-dimethyl-1-oxobutan-2-yl)carbamoyl)benzo[b]thiophen-5-yl)difluoromethyl)(hydroxy)phosphoryl)oxy)methyl pivalate]	100 to 1000 nM	< 100 nM	–	–	–	–	–	> 10000 nM
